According to PubChem BioAssay AID651554 (The Scripps Research Institute Molecular Screening Center, 2012):
Active and inactive are the calls of the source.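 The calls were made as follows: active = either panel giving IC50 at or below 10 µM; inactive = both panels giving IC50 over 10 µM.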

Biological target: Melanocortin receptor 4 (Homo sapiens) (UniProt P32245)
Experiment: inhibition of MC4R-driven cAMP production – cell-based, FRET, biased ligands, late-stage follow-up (AID 651554)
Conditions: U2OS MC4R, Melanotan II cAMP TR-FRET antagonist

Melanocortin receptor 4 (Homo sapiens), sequence (P32245 whole entry, looked up): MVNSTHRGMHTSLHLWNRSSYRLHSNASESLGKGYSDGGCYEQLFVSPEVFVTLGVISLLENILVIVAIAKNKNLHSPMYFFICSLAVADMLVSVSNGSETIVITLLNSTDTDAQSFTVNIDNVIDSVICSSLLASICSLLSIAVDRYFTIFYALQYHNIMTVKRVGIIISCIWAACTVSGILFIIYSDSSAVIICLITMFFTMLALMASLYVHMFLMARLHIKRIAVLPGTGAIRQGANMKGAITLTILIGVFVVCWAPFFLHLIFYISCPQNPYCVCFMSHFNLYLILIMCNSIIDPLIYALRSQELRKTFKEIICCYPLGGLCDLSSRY

SMILES | IC50 (run 2) | IC50 (run 1)
N#CC1c2ccccc2-n2nncc2CN1C(=O)c1ccccc1 (stereo not given) | > 50 µM (inactive) | 
Cc1ccc(CN2Cc3cnnn3-c3ccccc3C2C#N)c(C)c1 (stereo not given) | > 50 µM (inactive) | 
CCC1CCCCN1S(=O)(=O)c1ccc(NC(=O)c2ccnc(SC)n2)cc1 (stereo not given) |  | > 50 µM (inactive)
CCC1CCCCN1S(=O)(=O)c1ccc(NC(=O)c2cccc(S(C)(=O)=O)c2)cc1 (stereo not given) |  | > 50 µM (inactive)
CNC(=O)c1cc(Oc2ccc(NC(=O)Nc3ccc(Cl)c(C(F)(F)F)c3)cc2)ccn1 |  | inactive
CNC(=O)c1cc(Oc2ccc(NC(=O)CNc3ccc(Cl)c(C(F)(F)F)c3)cc2)ccn1 |  | > 50 µM (inactive)
Cc1ccccc1CN1Cc2cnnn2-c2ccccc2C1C#N (stereo not given) |  | > 50 µM (inactive)
CCC1CCCCN1S(=O)(=O)c1ccc(NC(=O)c2nc(S(C)(=O)=O)ncc2Br)cc1 (stereo not given) | > 50 µM (inactive) | 
Cc1ccccc1CN1Cc2ccccc2-n2nncc2C1 | > 50 µM (inactive) | 
COc1ccc(N(C(=O)Cc2cccs2)C(C(=O)NC2CCCC2)c2cccs2)cc1OC (stereo not given) | > 50 µM (inactive) | 
Cc1ccc(CN2Cc3ccccc3-n3nncc3C2)c(C)c1 | > 50 µM (inactive) | 
COc1ccc(N(C(=O)c2ccco2)C(C(=O)NC2CCCC2)c2cccs2)cc1OC (stereo not given) | > 50 µM (inactive) | 
CC(=O)c1ccc(Nc2nc3ccc(C(=O)N(CCC(C)C)CCC(C)C)cc3n2CCCN2CCCCC2)cc1 | 0.0365 µM | 0.0174 µM
CCC1CCCCN1S(=O)(=O)c1ccc(NC(=O)c2ccnc(S(C)(=O)=O)n2)cc1 (stereo not given) | inactive | 
C#CC(=O)N(c1ccc(OC)c(OC)c1)C(C(=O)NC1CCCC1)c1cccs1 (stereo not given) |  | > 50 µM (inactive)
COc1ccccc1C1(CCNC(C)c2cccs2)CCOC(C(C)C)C1 (stereo not given) |  | 8.15 µM
CCC1CCCCN1S(=O)(=O)c1ccc(NC(=O)c2ccnc(S(C)=O)n2)cc1 (stereo not given) | > 50 µM (inactive) | 
O=C(NC1CCCC1)C(Nc1ccccc1)c1cccs1 (stereo not given) | > 50 µM (inactive) | 
COc1ccc(N(C(C)=O)C(C(=O)NC2CCCC2)c2cccs2)cc1OC (stereo not given) |  | > 50 µM (inactive)
CCC1CCCCN1S(=O)(=O)c1ccc(NC(=O)c2ccccc2)cc1 (stereo not given) | > 50 µM (inactive) | > 50 µM (inactive)
CC(=O)N(c1ccccc1)C(C(=O)NC1CCCC1)c1cccs1 (stereo not given) | > 50 µM (inactive) | 
CC1CCCCN1S(=O)(=O)c1ccc(NC(=O)c2nc(S(C)(=O)=O)ncc2Cl)cc1 (stereo not given) |  | inactive
CNC(=O)c1cc(Oc2ccc(NCC(=O)Nc3ccc(Cl)c(C(F)(F)F)c3)cc2)ccn1 |  | > 50 µM (inactive)
